Results as given in ChEMBL document CHEMBL3588852, “Gastroprotective activity of ent-beyerene derivatives in mice: Effects on gastric secretion, endogenous prostaglandins and non-protein sulfhydryls” (Bioorg Med Chem Lett, 2015).

Columns and labels:
Mus musculus [1] = experiment: Gastroprotective activity in Swiss albino mouse model of HCl/EtOH-induced lesion assessed as gastric lesion index at 10 mg/kg, po dosed 50 mins before HCl/EtOH challenge and measured 1 hr post HCl/EtOH challenge (reference value: 42 +/- 1.9 mm); assay type: functional, Stomach
AGS = experiment: Cytotoxic activity against human AGS cells assessed as reduction in cell viability incubated for 48 hrs by MTT assay; assay type: cell-based
[2] = Cytotoxic activity against human fibroblasts assessed as reduction in cell viability incubated for 48 hrs by MTT assay; assay type: cell-based; conditions: Fibroblast
Mus musculus [3] = experiment: Gastroprotective activity in Swiss albino mouse model of HCl/EtOH-induced lesion assessed as inhibition of gastric lesions at 50 mg/kg, po dosed 50 mins before HCl/EtOH challenge and measured 1 hr post HCl/EtOH challenge; assay type: functional; conditions: Stomach
Mus musculus [4] = experiment: Gastroprotective activity in Swiss albino mouse model of HCl/EtOH-induced lesion assessed as gastric lesion index at 100 mg/kg, po dosed 50 mins before HCl/EtOH challenge and measured 1 hr post HCl/EtOH challenge (reference value: 42 +/- 1.9 mm); assay type: functional, Stomach
Mus musculus [5] = experiment: Gastroprotective activity in Swiss albino mouse model of HCl/EtOH-induced lesion assessed as gastric lesion index at 70 mg/kg, po dosed 50 mins before HCl/EtOH challenge and measured 1 hr post HCl/EtOH challenge (reference value: 42 +/- 1.9 mm); assay type: functional, Stomach
Mus musculus [6] = experiment: Gastroprotective activity in Swiss albino mouse model of HCl/EtOH-induced lesion assessed as inhibition of gastric lesions at 12.5 to 100 mg/kg, po dosed 50 mins before HCl/EtOH challenge and measured 1 hr post HCl/EtOH challenge; assay type: functional; conditions: Stomach
Mus musculus [7] = experiment: Gastroprotective activity in Swiss albino mouse model of HCl/EtOH-induced lesion assessed as inhibition of gastric lesions at 100 mg/kg, po dosed 50 mins before HCl/EtOH challenge and measured 1 hr post HCl/EtOH challenge; assay type: functional; conditions: Stomach
Mus musculus [8] = experiment: Gastroprotective activity in Swiss albino mouse model of HCl/EtOH-induced lesion assessed as inhibition of gastric lesions at 20 mg/kg, po dosed 50 mins before HCl/EtOH challenge and measured 1 hr post HCl/EtOH challenge; assay type: functional; conditions: Stomach
Mus musculus [9] = experiment: (§1) Gastroprotective activity in Swiss albino mouse model of HCl/EtOH-induced lesion pre-treated with 10 mg/kg sulfhydryl inhibitor NEM assessed as gastric lesion index at 50 mg/kg, po dosed 50 mins before HCl/EtOH challenge and measured 1 hr post HCl/EtOH challenge (reference value: 12.1 +/- 2.5 mm); assay type: functional, Stomach
Mus musculus [10] = experiment: as §1, with “70” for “10”, “NO synthase” for “sulfhydryl”, “L-NAME” for “NEM”; assay type: functional, Stomach
Mus musculus [11] = experiment: as §1, with “3.5” for “10”, “vanilloid receptor antagonist ruthenium red” for “sulfhydryl inhibitor NEM”; assay type: functional, Stomach
Mus musculus [12] = experiment: as §1, with “prostaglandin synthesis” for “sulfhydryl”, “indomethacin” for “NEM”; assay type: functional, Stomach
Mus musculus [13] = experiment: Gastroprotective activity in Swiss albino mouse model of HCl/EtOH-induced lesion assessed as gastric lesion index at 50 mg/kg, po dosed 50 mins before HCl/EtOH challenge and measured 1 hr post HCl/EtOH challenge (reference value: 42 +/- 1.9 mm); assay type: functional, Stomach

## COc1ccc2c(c1)c(CC(=O)O)c(C)n2C(=O)c1ccc(Cl)cc1 [INDOMETHACIN]
Mus musculus [1]
  Activity: 39.9 mm

## C[C@]12C=C[C@@]3(CC[C@@H]4[C@@](C)(COC(=O)/C=C/c5ccc(F)cc5)CCC[C@@]4(C)[C@@H]3CC1)C2
AGS
  IC50: 58 µM
[2]
  IC50: 69 µM
Mus musculus [3]
  inhibition in vivo at 50 mg/kg: 24%

## COc1ccccc1/C=C/C(=O)OC[C@@]1(C)CCC[C@]2(C)[C@@H]1CC[C@@]13C=C[C@@](C)(CC[C@H]12)C3
AGS
  IC50: 151 µM
[2]
  IC50: 311 µM
Mus musculus [3]
  inhibition in vivo at 50 mg/kg: 7%

## CCCCCCCCCCCC(=O)OC[C@@]1(C)CCC[C@]2(C)[C@@H]1CC[C@@]13C=C[C@@](C)(CC[C@H]12)C3
AGS
  IC50: 33 µM
[2]
  IC50: 52 µM
Mus musculus [3]
  inhibition in vivo at 50 mg/kg: 51%

## Cc1ccc(/C=C/C(=O)OC[C@@]2(C)CCC[C@]3(C)[C@@H]2CC[C@@]24C=C[C@@](C)(CC[C@H]23)C4)cc1
AGS
  IC50: 39 µM
[2]
  IC50: 49 µM
Mus musculus [3]
  inhibition in vivo at 50 mg/kg: 8%

## COc1ccc(/C=C/C(=O)OC[C@@]2(C)CCC[C@]3(C)[C@@H]2CC[C@@]24C=C[C@@](C)(CC[C@H]23)C4)cc1
AGS
  IC50: 230 µM
[2]
  IC50: 378 µM
Mus musculus [3]
  inhibition in vivo at 50 mg/kg: 11%

## C[C@]12C=C[C@@]3(CC[C@@H]4[C@@](C)(COC(=O)/C=C/c5ccc([N+](=O)[O-])cc5)CCC[C@@]4(C)[C@@H]3CC1)C2
AGS
  IC50: 35 µM
[2]
  IC50: 61 µM
Mus musculus [3]
  inhibition in vivo at 50 mg/kg: 0%

## CC1(C)[C@@H](OC(=O)CCC(=O)O)CC[C@]2(C)[C@H]3C(=O)C=C4[C@@H]5C[C@@](C)(C(=O)O)CC[C@]5(C)CC[C@@]4(C)[C@]3(C)CC[C@@H]12 [CARBENOXOLONE]
Mus musculus [4]
  Activity: 13.1 mm

## CCCCCCCCCCCCCCCCCC(=O)OC[C@@]1(C)CCC[C@]2(C)[C@@H]1CC[C@@]13C=C[C@@](C)(CC[C@H]12)C3
AGS
  IC50: 228 µM
[2]
  IC50: 359 µM
Mus musculus [3]
  inhibition in vivo at 50 mg/kg: 44%

## C[C@]12C=C[C@@]3(CC[C@@H]4[C@@](C)(COC(=O)/C=C/c5ccccc5[N+](=O)[O-])CCC[C@@]4(C)[C@@H]3CC1)C2
AGS
  IC50: 25 µM
[2]
  IC50: 38 µM
Mus musculus [3]
  inhibition in vivo at 50 mg/kg: 14%

## C[C@]12C=C[C@@]3(CC[C@@H]4[C@@](C)(COC(=O)/C=C/c5ccccc5)CCC[C@@]4(C)[C@@H]3CC1)C2
AGS
  IC50: 30 µM
[2]
  IC50: 45 µM
Mus musculus [3]
  inhibition in vivo at 50 mg/kg: 68%

## COC(=O)[C@@H](N)CCCNC(=N)N[N+](=O)[O-] [L-NAME]
Mus musculus [5]
  Activity: 42.7 mm

## C[C@]12C=C[C@@]3(CC[C@@H]4[C@@](C)(CO)CCC[C@@]4(C)[C@@H]3CC1)C2
Mus musculus [6]
  ED50: 50 mg/kg
  inhibition: Dose-dependent effect
AGS
  IC50: 19 µM
Mus musculus [7]
  inhibition in vivo at 100 mg/kg: 79%
[2]
  IC50: 31 µM
Mus musculus [3]
  inhibition in vivo at 50 mg/kg: 53%

## COc1cccc(/C=C/C(=O)OC[C@@]2(C)CCC[C@]3(C)[C@@H]2CC[C@@]24C=C[C@@](C)(CC[C@H]23)C4)c1
AGS
  IC50: 165 µM
[2]
  IC50: 289 µM
Mus musculus [3]
  inhibition in vivo at 50 mg/kg: 4%

## CCCCCCCCCCCCCC(=O)OC[C@@]1(C)CCC[C@]2(C)[C@@H]1CC[C@@]13C=C[C@@](C)(CC[C@H]12)C3
AGS
  IC50: 38 µM
[2]
  IC50: 61 µM
Mus musculus [3]
  inhibition in vivo at 50 mg/kg: 46%

## CCCCCCCCCC(=O)OC[C@@]1(C)CCC[C@]2(C)[C@@H]1CC[C@@]13C=C[C@@](C)(CC[C@H]12)C3
AGS
  IC50: 21 µM
[2]
  IC50: 33 µM
Mus musculus [3]
  inhibition in vivo at 50 mg/kg: 52%

## CCN1C(=O)C=CC1=O [N-ETHYLMALEIMIDE]
Mus musculus [1]
  Activity: 41.9 mm

## Cc1c(OCC(F)(F)F)ccnc1C[S+]([O-])c1nc2ccccc2[nH]1 (stereo not given) [LANSOPRAZOLE]
AGS
  IC50: 149 µM
Mus musculus [8]
  inhibition in vivo at 20 mg/kg: 57%
[2]
  IC50: 291 µM
Mus musculus [3]
  inhibition in vivo at 50 mg/kg: 65%

## CCCCCCCCCCCCCCCCCCCC(=O)OC[C@@]1(C)CCC[C@]2(C)[C@@H]1CC[C@@]13C=C[C@@](C)(CC[C@H]12)C3
AGS
  IC50: 321 µM
[2]
  IC50: 581 µM
Mus musculus [3]
  inhibition in vivo at 50 mg/kg: 34%

## C[C@]12C=C[C@@]3(CC[C@@H]4[C@@](C)(COC(=O)/C=C/c5cccc([N+](=O)[O-])c5)CCC[C@@]4(C)[C@@H]3CC1)C2
AGS
  IC50: 29 µM
[2]
  IC50: 44 µM
Mus musculus [3]
  inhibition in vivo at 50 mg/kg: 2%

## C[C@]12C=C[C@@]3(CC[C@@H]4[C@@](C)(COC(=O)/C=C/c5ccc(Cl)cc5)CCC[C@@]4(C)[C@@H]3CC1)C2
AGS
  IC50: 18 µM
[2]
  IC50: 29 µM
Mus musculus [3]
  inhibition in vivo at 50 mg/kg: 42%

## CCCCCCCCCCCCCCCC(=O)OC[C@@]1(C)CCC[C@]2(C)[C@@H]1CC[C@@]13C=C[C@@](C)(CC[C@H]12)C3
AGS
  IC50: 64 µM
[2]
  IC50: 88 µM
Mus musculus [3]
  inhibition in vivo at 50 mg/kg: 46%

## C[C@]12C=C[C@@]3(CC[C@@H]4[C@@](C)(COC(=O)/C=C/c5cccc(Cl)c5)CCC[C@@]4(C)[C@@H]3CC1)C2
Mus musculus [9]
  Activity: 15.2 mm
Mus musculus [10]
  Activity: 13.1 mm
Mus musculus [11]
  Activity: 17 mm
AGS
  IC50: 12 µM
Mus musculus [12]
  Activity: 38.9 mm
Mus musculus [13]
  Activity: 12.1 mm
[2]
  IC50: 15 µM
Mus musculus [3]
  inhibition in vivo at 50 mg/kg: 77%
